Source: US8143293B2, “Kinase inhibitors useful for the treatment of myleoprolific diseases and other proliferative diseases” (Deciphera Pharmaceuticals, LLC, priority 2007, dated 2012)
pIC50: −log10 of the molar value.

Key:
[1] = target: T1, BaF3 cells transfected with wild type p210 BCR-Abl (Homo sapiens, UniProt P00519); experiment: Ba/F3 p210 whole cell proliferation assay; type: cell-based; details: 72 hours, Cell Titer Blue; read-out: Whole Cell Antiproliferation IC50, Ba/F3 p210 whole cell proliferation assay
T1 construct: fused on or other part: P11274 (Breakpoint cluster region protein)

[2] = target: T2, C-Met kinase (SEQ ID NO:10) (Homo sapiens, UniProt P08581); experiment: C-Met kinase (SEQ ID NO:10) assay, pyruvate kinase/lactate dehydrogenase coupled; details: 0.5 h preincubation, ATP 100 μM; read-out: Biochemical IC50, c-Met Enzyme Assay
T2 construct: 956-1390, from Invitrogen, catalogue #PV3143; His6 (N-terminal leader MSYYHHHHHH... with TEV and thrombin sites) (N); purchased Invitrogen PV3143
In short: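 Human c-Met residues 956-1390 with polyE4Y substrate, pH 7.5; compounds preincubated 0.5 h at 22°C before 100 μM ATP start. ADP formation followed via pyruvate kinase/lactate dehydrogenase coupling as NADH loss at A340 for 2 h at 30°C; rate over 1.0–2.0 h, IC50 from percent-inhibition curves.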

[3] = target: T3, Abl kinase (SEQ ID NO: 1) (Homo sapiens, UniProt P00519); experiment: Abl kinase (SEQ ID NO:1) assay, pyruvate kinase/lactate dehydrogenase coupled; details: 2 h preincubation, ATP 500 μM; read-out: Biochemical IC50, Abl Enzyme Assay
T3 construct: purchased deCode Genetics
T3 sequence (P00519 with tags, fused parts or gaps): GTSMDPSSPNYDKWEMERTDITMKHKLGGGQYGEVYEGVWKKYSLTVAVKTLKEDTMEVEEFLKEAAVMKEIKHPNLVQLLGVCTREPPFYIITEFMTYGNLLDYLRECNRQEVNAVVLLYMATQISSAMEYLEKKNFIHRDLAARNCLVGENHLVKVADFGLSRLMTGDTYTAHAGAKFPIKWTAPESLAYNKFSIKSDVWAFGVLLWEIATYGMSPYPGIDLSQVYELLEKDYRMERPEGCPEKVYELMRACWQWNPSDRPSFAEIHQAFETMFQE
In short: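 ADP formation was coupled to pyruvate kinase/lactate dehydrogenase, and NADH loss at 340 nm was followed continuously. Compounds were preincubated 2 h at 30° C before 500 μM ATP, and rates from 1.0–2.0 h gave % inhibition and IC50.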

T2 sequence (P08581 with tags, fused parts or gaps): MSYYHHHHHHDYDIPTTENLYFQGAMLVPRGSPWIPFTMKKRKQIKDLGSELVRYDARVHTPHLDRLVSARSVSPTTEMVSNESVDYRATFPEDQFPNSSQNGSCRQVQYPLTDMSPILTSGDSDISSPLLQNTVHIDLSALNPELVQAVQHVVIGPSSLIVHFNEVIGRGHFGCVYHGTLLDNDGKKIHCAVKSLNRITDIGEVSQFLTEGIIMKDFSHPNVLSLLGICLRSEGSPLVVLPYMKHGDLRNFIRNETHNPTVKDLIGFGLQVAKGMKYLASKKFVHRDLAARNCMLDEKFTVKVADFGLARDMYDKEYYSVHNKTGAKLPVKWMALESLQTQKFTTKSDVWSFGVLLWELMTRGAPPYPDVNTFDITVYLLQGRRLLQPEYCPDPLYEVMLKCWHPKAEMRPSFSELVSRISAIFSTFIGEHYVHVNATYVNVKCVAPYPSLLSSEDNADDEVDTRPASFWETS
T1 sequence (P00519 whole entry, change not shown, the tested form may be a part): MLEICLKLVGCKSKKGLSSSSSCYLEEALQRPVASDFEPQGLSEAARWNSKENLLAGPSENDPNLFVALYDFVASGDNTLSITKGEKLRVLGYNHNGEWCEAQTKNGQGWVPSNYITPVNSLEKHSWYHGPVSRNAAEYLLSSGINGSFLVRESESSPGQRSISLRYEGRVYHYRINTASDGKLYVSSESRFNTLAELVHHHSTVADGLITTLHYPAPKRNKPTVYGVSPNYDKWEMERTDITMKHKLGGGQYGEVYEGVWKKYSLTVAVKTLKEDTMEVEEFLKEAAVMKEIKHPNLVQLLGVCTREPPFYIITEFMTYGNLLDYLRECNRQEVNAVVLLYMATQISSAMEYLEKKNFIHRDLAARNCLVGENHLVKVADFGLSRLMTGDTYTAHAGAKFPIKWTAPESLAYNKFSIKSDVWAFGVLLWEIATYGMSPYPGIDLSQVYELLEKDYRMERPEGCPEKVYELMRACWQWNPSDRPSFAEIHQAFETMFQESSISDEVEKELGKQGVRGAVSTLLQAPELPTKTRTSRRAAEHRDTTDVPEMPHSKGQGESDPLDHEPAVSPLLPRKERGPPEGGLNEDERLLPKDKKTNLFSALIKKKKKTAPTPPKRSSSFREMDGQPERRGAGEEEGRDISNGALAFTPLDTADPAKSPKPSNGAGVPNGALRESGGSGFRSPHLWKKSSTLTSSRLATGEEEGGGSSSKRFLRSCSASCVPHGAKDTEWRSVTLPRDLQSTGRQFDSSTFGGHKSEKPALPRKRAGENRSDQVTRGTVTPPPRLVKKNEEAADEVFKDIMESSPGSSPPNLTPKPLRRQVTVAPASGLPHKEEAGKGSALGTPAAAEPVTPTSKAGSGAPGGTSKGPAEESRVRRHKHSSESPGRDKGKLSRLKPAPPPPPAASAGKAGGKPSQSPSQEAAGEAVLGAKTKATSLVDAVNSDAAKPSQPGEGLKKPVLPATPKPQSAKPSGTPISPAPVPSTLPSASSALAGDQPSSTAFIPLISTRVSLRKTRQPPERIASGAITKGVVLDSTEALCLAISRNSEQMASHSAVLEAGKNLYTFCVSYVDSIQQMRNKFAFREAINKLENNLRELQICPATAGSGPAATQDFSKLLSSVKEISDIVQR

| GI50 [1] [µM] | pIC50 [2] | pIC50 [3] | Compound |
| --- | --- | --- | --- |
| < 0.1 | > 6.00 | > 7.00 | 1-(2-fluoro-4-(2-(1-methyl-1H-pyrazol-4-yl)pyridin-4-yloxy)phenyl)-3-(3-(1-methylcyclopentyl)isoxazol-5-yl)urea [Example 14] |
| < 0.1 | > 6.00 | > 7.00 | Cn1cc(-c2cc(Oc3ccc(NC(=O)Nc4cc(C(C)(C)C)no4)c(F)c3)ccn2)cn1 [Example 1, 1-(3-t-butylisoxazol-5-yl)-3-(2-fluoro-4-(2-(1-methyl-1H-pyrazol-4-yl)pyridin-4-yloxy)phenyl)urea] |
| < 0.1 | > 6.00 | > 7.00 | Cn1cc(-c2cc(Oc3ccc(NC(=O)Nc4cc(C(C)(C)C)nn4C)c(F)c3)ccn2)cn1 [Example 2, 1-(3-t-butyl-1-methyl-1H-pyrazol-5-yl)-3-(2-fluoro-4-(2-(1-methyl-1H-pyrazol-4-yl)pyridin-4-yloxy)phenyl)urea] |
| < 0.1 | > 6.00 | > 7.00 | Cn1cc(-c2cc(Oc3ccc(NC(=O)Nc4cccc(C(F)(F)F)c4)c(F)c3)ccn2)cn1 [Example 3, 1-(2-fluoro-4-(2-(1-methyl-1H-pyrazol-4-yl)pyridin-4-yloxy)phenyl)-3-(3-(trifluoromethyl)phenyl)urea] |
| < 0.1 | > 5.00 | > 7.00 | Cn1cc(-c2cc(Oc3ccc(NC(=O)Nc4cnn(C(C)(C)C)c4)c(F)c3)ccn2)cn1 [Example 5, 1-(1-t-butyl-1H-pyrazol-4-yl)-3-(2-fluoro-4-(2-(1-methyl-1H-pyrazol-4-yl)pyridin-4-yloxy)phenyl)urea] |
| < 0.1 | > 5.00 | > 7.00 | Cn1cc(-c2cc(Oc3ccc(NC(=O)Nc4cncc(C(F)(F)F)c4)cc3)ccn2)cn1 [Example 6, 1-(4-(2-(1-methyl-1H-pyrazol-4-yl)pyridin-4-yloxy)phenyl)-3-(5-(trifluoromethyl)pyridin-3-yl)urea] |
| < 0.1 | > 6.00 | > 7.00 | Cn1cc(-c2cc(Oc3ccc(NC(=O)Nc4cnn(C(C)(C)C)c4)c(F)c3F)ccn2)cn1 [Example 8, 1-(1-tert-butyl-1H-pyrazol-4-yl)-3-(2,3-difluoro-4-(2-(1-methyl-1H-pyrazol-4-yl)pyridin-4-yloxy)phenyl)urea] |
| < 0.1 | > 5.00 | > 7.00 | Cn1cc(-c2cc(Oc3ccc(NC(=O)Nc4cnn(C(C)(C)C)c4C(F)(F)F)c(F)c3)ccn2)cn1 [Example 9, 1-(1-tert-butyl-5-(trifluoromethyl)-1H-pyrazol-4-yl)-3-(2-fluoro-4-(2-(1-methyl-1H-pyrazol-4-yl)pyridin-4-yloxy)phenyl)urea] |
| < 0.1 | > 5.00 | > 7.00 | Cc1c(NC(=O)Nc2ccc(Oc3ccnc(-c4cnn(C)c4)c3)cc2F)cnn1C(C)(C)C [Example 10, 1-(1-tert-butyl-5-methyl-1H-pyrazol-4-yl)-3-(2-fluoro-4-(2-(1-methyl-1H-pyrazol-4-yl)pyridin-4-yloxy)phenyl)urea] |
| < 0.1 | > 5.00 | > 7.00 | Cn1cc(-c2cc(Oc3ccc(NC(=O)Nc4nnc(C(C)(C)C)s4)c(F)c3)ccn2)cn1 [Example 11, 1-(5-tert-butyl-1,3,4-thiadiazol-2-yl)-3-(2-fluoro-4-(2-(1-methyl-1H-pyrazol-4-yl)pyridin-4-yloxy)phenyl)urea] |
| < 0.1 | > 5.00 | > 7.00 | CN(C)CCn1nc(C(C)(C)C)cc1NC(=O)Nc1ccc(Oc2ccnc(-c3cnn(C)c3)c2)cc1F [Example 12, 1-(3-tert-butyl-1-(2-(dimethylamino)ethyl)-11H-pyrazol-5-yl)-3-(2-fluoro-4-(2-(1-methyl-1H-pyrazol-4-yl)pyridin-4-yloxy)phenyl)urea] |
| < 0.1 | > 5.00 | > 7.00 | Cn1cc(-c2cc(Oc3ccc(NC(=O)Nc4cnn(C5CCCC5)c4)c(F)c3)ccn2)cn1 [Example 15, 1-(1-cyclopentyl-1H-pyrazol-4-yl)-3-(2-fluoro-4-(2-(1-methyl-1H-pyrazol-4-yl)pyridin-4-yloxy)phenyl)urea] |
| < 0.1 | > 6.00 | > 7.00 | Cn1cc(-c2cc(Oc3ccc(NC(=O)Nc4cncc(C(F)(F)F)c4)c(F)c3)ccn2)cn1 [Example 21, 1-(2-fluoro-4-(2-(1-methyl-1H-pyrazol-4-yl)pyridin-4-yloxy)phenyl)-3-(5-(trifluoromethyl)pyridin-3-yl)urea] |
| < 0.1 | > 6.00 | > 7.00 | CC(C)c1cncc(NC(=O)Nc2ccc(Oc3ccnc(-c4cnn(C)c4)c3)cc2F)c1 [Example 22, 1-(2-fluoro-4-(2-(1-methyl-1H-pyrazol-4-yl)pyridin-4-yloxy)phenyl)-3-(5-isopropylpyridin-3-yl)urea] |
| < 0.1 | > 7.00 | > 7.00 | Cn1cc(-c2cc(Oc3ccc(NC(=O)Nc4cc(C(C)(C)C)no4)c(F)c3F)ccn2)cn1 [Example 25, 1-(3-tert-butylisoxazol-5-yl)-3-(2,3-difluoro-4-(2-(1-methyl-1H-pyrazol-4-yl)pyridin-4-yloxy)phenyl)urea] |
| < 0.1 | > 6.00 | > 7.00 | Cn1cc(-c2cc(Oc3ccc(NC(=O)Nc4cc(C(F)(F)F)c[nH]c4=O)c(F)c3)ccn2)cn1 [Example 27, 1-(2-fluoro-4-(2-(1-methyl-1H-pyrazol-4-yl)pyridin-4-yloxy)phenyl)-3-(2-oxo-5-(trifluoromethyl)-1,2-dihydropyridin-3-yl)urea] |
| < 0.1 | > 5.00 | > 7.00 | Cc1oc(C(C)(C)C)cc1NC(=O)Nc1ccc(Oc2ccnc(-c3cnn(C)c3)c2)cc1F [Example 28, 1-(5-tert-butyl-2-methylfuran-3-yl)-3-(2-fluoro-4-(2-(1-methyl-1H-pyrazol-4-yl)pyridin-4-yloxy)phenyl)urea] |
| < 1 | > 4.00 | > 6.00 | Cn1cc(-c2cc(Oc3ccc(NC(=O)Nc4cnc(C(C)(C)C)nc4N4CCOCC4)c(F)c3)ccn2)cn1 [Example 41, 1-(2-tert-butyl-4-morpholinopyrimidin-5-yl)-3-(2-fluoro-4-(2-(1-methyl-1H-pyrazol-4-yl)pyridin-4-yloxy)phenyl)urea] |
| < 0.1 | > 6.00 | > 7.00 | Cn1cc(-c2cc(Oc3ccc(NC(=O)Nc4cc(C(F)(F)F)cnc4-c4cnn(C)c4)c(F)c3)ccn2)cn1 [Example 42, 1-(2-fluoro-4-(2-(1-methyl-1H-pyrazol-4-yl)pyridin-4-yloxy)phenyl)-3-(2-(1-methyl-1H-pyrazol-4-yl)-5-(trifluoromethyl)pyridin-3-yl)urea] |
